Measurements taken from ChEMBL document CHEMBL1158606, “Synthesis and molecular modeling studies of 3-chloro-4-substituted-1-(8-hydroxy-quinolin-5-yl)-azetidin-2-ones as novel anti-filarial agents” (2010).
The source made the active and inactive calls. No cut-off for these calls is given here.

Experiments:
Format in all cases: functional
Brugia malayi [1] = assay: Antifilarial activity against Brugia malayi assessed as loss of motility at 20 ng/ml after 48 hrs by MTT assay
Brugia malayi [2] = assay: Antifilarial activity against Brugia malayi assessed as loss of motility at 40 ng/ml after 48 hrs by MTT assay
Brugia malayi [3] = assay: Antifilarial activity against Brugia malayi assessed as loss of motility at 60 ng/ml after 48 hrs by MTT assay
Brugia malayi [4] = assay: Antifilarial activity against Brugia malayi assessed as loss of motility at 80 ng/ml after 48 hrs by MTT assay
Brugia malayi [5] = assay: Antifilarial activity against Brugia malayi assessed as loss of motility at 100 ng/ml after 48 hrs by MTT assay

SMILES | Activity (Brugia malayi [1]) | Activity (Brugia malayi [2]) | Activity (Brugia malayi [3]) | Activity (Brugia malayi [4]) | Activity (Brugia malayi [5])
O=C1C(Cl)C(c2ccc(Br)cc2)N1c1ccc(O)c2ncccc12 (stereo not given) | inactive | inactive | 3% | 16% | 23%
COc1ccc(C2C(Cl)C(=O)N2c2ccc(O)c3ncccc23)cc1 (stereo not given) | 67% | 76% | 91% | 91% | 91%
O=C1C(Cl)C(c2ccc(F)cc2)N1c1ccc(O)c2ncccc12 (stereo not given) | inactive | inactive | 12% | 26% | 37%
CC1C(Cl)C(=O)N1c1ccc(O)c2ncccc12 (stereo not given) | 53% | 61% | 67% | 76% | 81%
O=C1C(Cl)C(c2ccccc2)N1c1ccc(O)c2ncccc12 (stereo not given) | inactive | inactive | inactive | 2% | 2%
O=C1C(Cl)C(c2ccc(Cl)cc2)N1c1ccc(O)c2ncccc12 (stereo not given) | inactive | 10% | 19% | 36% | 59%
